Source: the supplement of paper PMC10307832

Legend:
Test in all cases: relative viability (nuclei count vs DMSO), 5 days (fraction); higher = more cells survive
Dactolisib + Bortezomib = compound: Cn1c(=O)n(-c2ccc(C(C)(C)C#N)cc2)c2c3cc(-c4cnc5ccccc5c4)ccc3ncc21 [Dactolisib] + CC(C)C[C@H](NC(=O)[C@H](Cc1ccccc1)NC(=O)c1cnccn1)B(O)O [Bortezomib] (partner 0.002 µM)
How it was run: (§1)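 Lung cancer cell lines, seeded in 1536-well plates, were treated the following day by pin tool with a single drug or with five library-drug doses (not always all listed) in √10 steps on top of a fixed anchor-drug dose. Cells were fixed and nuclei stained in one step after 5 days, and nuclei were counted. Relative viability is the nuclei count for treated wells divided by that for vehicle wells, reported as medians of duplicate plates.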

AZ505 + Crizotinib = compound: C1CCC(CC1)N(CCNCCC2=C3C(=C(C=C2)O)NC(=O)CO3)C(=O)CCNCCC4=CC(=C(C=C4)Cl)Cl [AZ505] + C[C@@H](Oc1cc(-c2cnn(C3CCNCC3)c2)cnc1N)c1c(Cl)ccc(F)c1Cl [Crizotinib] (partner 1 µM)
How it was run: as §1

Dactolisib + Vorinostat = compound: Cn1c(=O)n(-c2ccc(C(C)(C)C#N)cc2)c2c3cc(-c4cnc5ccccc5c4)ccc3ncc21 [Dactolisib] + O=C(CCCCCCC(=O)Nc1ccccc1)NO [Vorinostat] (partner 1 µM)
How it was run: as §1

AZ505 + Palbociclib = compound: C1CCC(CC1)N(CCNCCC2=C3C(=C(C=C2)O)NC(=O)CO3)C(=O)CCNCCC4=CC(=C(C=C4)Cl)Cl [AZ505] + CC(=O)c1c(C)c2cnc(Nc3ccc(N4CCNCC4)cn3)nc2n(C2CCCC2)c1=O [Palbociclib] (partner 0.5 µM)
How it was run: as §1

Cell Line: HCC-78
- relative viability (Dactolisib + Bortezomib; first compound 0.002 µM): 0.483
- relative viability (Dactolisib + Bortezomib; first compound 0.006325 µM): 0.43
- relative viability (Dactolisib + Bortezomib; first compound 0.02 µM): 0.404
- relative viability (Dactolisib + Bortezomib; first compound 0.06325 µM): 0.269
- relative viability (Dactolisib + Bortezomib; first compound 0.2 µM): 0.203
- relative viability (AZ505 + Crizotinib; first compound 0.253 µM): 0.397
- relative viability (AZ505 + Crizotinib; first compound 0.8 µM): 0.373
- relative viability (AZ505 + Crizotinib; first compound 2.53 µM): 0.341
- relative viability (AZ505 + Crizotinib; first compound 8 µM): 0.389
- relative viability (Dactolisib + Vorinostat; first compound 0.002 µM): 0.33
- relative viability (Dactolisib + Vorinostat; first compound 0.006325 µM): 0.431
- relative viability (Dactolisib + Vorinostat; first compound 0.02 µM): 0.415
- relative viability (Dactolisib + Vorinostat; first compound 0.06325 µM): 0.367
- relative viability (Dactolisib + Vorinostat; first compound 0.2 µM): 0.303
- relative viability (AZ505 + Palbociclib; first compound 0.08 µM): 0.452
- relative viability (AZ505 + Palbociclib; first compound 0.253 µM): 0.409
- relative viability (AZ505 + Palbociclib; first compound 0.8 µM): 0.4
- relative viability (AZ505 + Palbociclib; first compound 2.53 µM): 0.435
- relative viability (AZ505 + Palbociclib; first compound 8 µM): 0.434

Cell Line: HCC-366
- relative viability (Dactolisib + Bortezomib; first compound 0.002 µM): 0.963
- relative viability (Dactolisib + Bortezomib; first compound 0.006325 µM): 1.09
- relative viability (Dactolisib + Bortezomib; first compound 0.02 µM): 0.988
- relative viability (Dactolisib + Bortezomib; first compound 0.06325 µM): 0.593
- relative viability (Dactolisib + Bortezomib; first compound 0.2 µM): 0.481
- relative viability (AZ505 + Crizotinib; first compound 0.08 µM): 0.418
- relative viability (AZ505 + Crizotinib; first compound 0.253 µM): 0.365
- relative viability (AZ505 + Crizotinib; first compound 0.8 µM): 0.551
- relative viability (AZ505 + Crizotinib; first compound 2.53 µM): 0.396
- relative viability (AZ505 + Crizotinib; first compound 8 µM): 0.534
- relative viability (Dactolisib + Vorinostat; first compound 0.002 µM): 0.285
- relative viability (Dactolisib + Vorinostat; first compound 0.006325 µM): 0.407
- relative viability (Dactolisib + Vorinostat; first compound 0.02 µM): 0.325
- relative viability (Dactolisib + Vorinostat; first compound 0.06325 µM): 0.0887
- relative viability (Dactolisib + Vorinostat; first compound 0.2 µM): 0.0549
- relative viability (AZ505 + Palbociclib; first compound 0.08 µM): 0.361
- relative viability (AZ505 + Palbociclib; first compound 0.253 µM): 0.491
- relative viability (AZ505 + Palbociclib; first compound 0.8 µM): 0.326
- relative viability (AZ505 + Palbociclib; first compound 2.53 µM): 0.402
- relative viability (AZ505 + Palbociclib; first compound 8 µM): 0.384

Cell Line: HCC-827
- relative viability (Dactolisib + Bortezomib; first compound 0.002 µM): 1.12
- relative viability (Dactolisib + Bortezomib; first compound 0.006325 µM): 1.01
- relative viability (Dactolisib + Bortezomib; first compound 0.02 µM): 1.11
- relative viability (Dactolisib + Bortezomib; first compound 0.06325 µM): 1.14
- relative viability (Dactolisib + Bortezomib; first compound 0.2 µM): 1.05
- relative viability (AZ505 + Crizotinib; first compound 0.08 µM): 0.865
- relative viability (AZ505 + Crizotinib; first compound 0.253 µM): 0.854
- relative viability (AZ505 + Crizotinib; first compound 0.8 µM): 0.913
- relative viability (AZ505 + Crizotinib; first compound 2.53 µM): 0.918
- relative viability (AZ505 + Crizotinib; first compound 8 µM): 0.948
- relative viability (Dactolisib + Vorinostat; first compound 0.002 µM): 0.966
- relative viability (Dactolisib + Vorinostat; first compound 0.006325 µM): 0.934
- relative viability (Dactolisib + Vorinostat; first compound 0.02 µM): 0.785
- relative viability (Dactolisib + Vorinostat; first compound 0.06325 µM): 0.498
- relative viability (Dactolisib + Vorinostat; first compound 0.2 µM): 0.82
- relative viability (AZ505 + Palbociclib; first compound 0.08 µM): 0.416
- relative viability (AZ505 + Palbociclib; first compound 0.253 µM): 0.551
- relative viability (AZ505 + Palbociclib; first compound 0.8 µM): 0.374
- relative viability (AZ505 + Palbociclib; first compound 2.53 µM): 0.509
- relative viability (AZ505 + Palbociclib; first compound 8 µM): 0.525

Cell Line: HOP-62
- relative viability (Dactolisib + Bortezomib; first compound 0.002 µM): 0.884
- relative viability (Dactolisib + Bortezomib; first compound 0.006325 µM): 0.867
- relative viability (Dactolisib + Bortezomib; first compound 0.02 µM): 0.518
- relative viability (Dactolisib + Bortezomib; first compound 0.06325 µM): 0.41
- relative viability (Dactolisib + Bortezomib; first compound 0.2 µM): 0.252
- relative viability (AZ505 + Crizotinib; first compound 0.08 µM): 0.849
- relative viability (AZ505 + Crizotinib; first compound 0.253 µM): 0.853
- relative viability (AZ505 + Crizotinib; first compound 0.8 µM): 1.03
- relative viability (AZ505 + Crizotinib; first compound 2.53 µM): 0.964
- relative viability (AZ505 + Crizotinib; first compound 8 µM): 0.88
- relative viability (Dactolisib + Vorinostat; first compound 0.002 µM): 0.572
- relative viability (Dactolisib + Vorinostat; first compound 0.006325 µM): 0.541
- relative viability (Dactolisib + Vorinostat; first compound 0.02 µM): 0.543
- relative viability (Dactolisib + Vorinostat; first compound 0.06325 µM): 0.177
- relative viability (Dactolisib + Vorinostat; first compound 0.2 µM): 0.219
- relative viability (AZ505 + Palbociclib; first compound 0.08 µM): 0.403
- relative viability (AZ505 + Palbociclib; first compound 0.253 µM): 0.535
- relative viability (AZ505 + Palbociclib; first compound 0.8 µM): 0.461
- relative viability (AZ505 + Palbociclib; first compound 2.53 µM): 0.475
- relative viability (AZ505 + Palbociclib; first compound 8 µM): 0.52

Cell Line: IA-LM
- relative viability (Dactolisib + Bortezomib; first compound 0.002 µM): 0.828
- relative viability (Dactolisib + Bortezomib; first compound 0.006325 µM): 0.691
- relative viability (Dactolisib + Bortezomib; first compound 0.02 µM): 0.511
- relative viability (Dactolisib + Bortezomib; first compound 0.06325 µM): 0.145
- relative viability (Dactolisib + Bortezomib; first compound 0.2 µM): 0.0972
- relative viability (AZ505 + Crizotinib; first compound 0.08 µM): 0.695
- relative viability (AZ505 + Crizotinib; first compound 0.253 µM): 0.769
- relative viability (AZ505 + Crizotinib; first compound 0.8 µM): 0.861
- relative viability (AZ505 + Crizotinib; first compound 2.53 µM): 0.75
- relative viability (AZ505 + Crizotinib; first compound 8 µM): 1.07
- relative viability (Dactolisib + Vorinostat; first compound 0.002 µM): 1
- relative viability (Dactolisib + Vorinostat; first compound 0.006325 µM): 0.903
- relative viability (Dactolisib + Vorinostat; first compound 0.02 µM): 0.817
- relative viability (Dactolisib + Vorinostat; first compound 0.06325 µM): 0.426
- relative viability (Dactolisib + Vorinostat; first compound 0.2 µM): 0.267

Cell Line: LC-2-ad
- relative viability (Dactolisib + Bortezomib; first compound 0.002 µM): 1.09
- relative viability (Dactolisib + Bortezomib; first compound 0.02 µM): 1.04
- relative viability (Dactolisib + Bortezomib; first compound 0.06325 µM): 0.734
- relative viability (Dactolisib + Bortezomib; first compound 0.2 µM): 0.52
- relative viability (AZ505 + Crizotinib; first compound 0.08 µM): 0.432
- relative viability (AZ505 + Crizotinib; first compound 0.253 µM): 0.475
- relative viability (AZ505 + Crizotinib; first compound 0.8 µM): 0.438
- relative viability (AZ505 + Crizotinib; first compound 2.53 µM): 0.472
- relative viability (AZ505 + Crizotinib; first compound 8 µM): 0.427
- relative viability (Dactolisib + Vorinostat; first compound 0.002 µM): 0.857
- relative viability (Dactolisib + Vorinostat; first compound 0.006325 µM): 0.699
- relative viability (Dactolisib + Vorinostat; first compound 0.02 µM): 0.749
- relative viability (Dactolisib + Vorinostat; first compound 0.06325 µM): 0.524
- relative viability (Dactolisib + Vorinostat; first compound 0.2 µM): 0.496
- relative viability (AZ505 + Palbociclib; first compound 0.08 µM): 0.458
- relative viability (AZ505 + Palbociclib; first compound 0.253 µM): 0.479
- relative viability (AZ505 + Palbociclib; first compound 0.8 µM): 0.45
- relative viability (AZ505 + Palbociclib; first compound 2.53 µM): 0.499
- relative viability (AZ505 + Palbociclib; first compound 8 µM): 0.511

Cell Line: LK-2
- relative viability (AZ505 + Crizotinib; first compound 0.08 µM): 0.234
- relative viability (AZ505 + Crizotinib; first compound 0.253 µM): 0.237
- relative viability (AZ505 + Crizotinib; first compound 0.8 µM): 0.211
- relative viability (AZ505 + Crizotinib; first compound 2.53 µM): 0.21
- relative viability (AZ505 + Crizotinib; first compound 8 µM): 0.215
- relative viability (Dactolisib + Vorinostat; first compound 0.002 µM): 0.317
- relative viability (Dactolisib + Vorinostat; first compound 0.006325 µM): 0.247
- relative viability (Dactolisib + Vorinostat; first compound 0.02 µM): 0.294
- relative viability (Dactolisib + Vorinostat; first compound 0.06325 µM): 0.239
- relative viability (Dactolisib + Vorinostat; first compound 0.2 µM): 0.213
- relative viability (AZ505 + Palbociclib; first compound 0.08 µM): 0.487
- relative viability (AZ505 + Palbociclib; first compound 0.253 µM): 0.73
- relative viability (AZ505 + Palbociclib; first compound 0.8 µM): 0.768
- relative viability (AZ505 + Palbociclib; first compound 2.53 µM): 0.792
- relative viability (AZ505 + Palbociclib; first compound 8 µM): 0.898

Cell Line: NCI-H358
- relative viability (AZ505 + Crizotinib; first compound 0.08 µM): 0.566
- relative viability (AZ505 + Crizotinib; first compound 0.253 µM): 0.572
- relative viability (AZ505 + Crizotinib; first compound 0.8 µM): 0.551
- relative viability (AZ505 + Crizotinib; first compound 2.53 µM): 0.536
- relative viability (AZ505 + Crizotinib; first compound 8 µM): 0.371
- relative viability (Dactolisib + Vorinostat; first compound 0.002 µM): 0.68
- relative viability (Dactolisib + Vorinostat; first compound 0.006325 µM): 0.652
- relative viability (Dactolisib + Vorinostat; first compound 0.02 µM): 0.503
- relative viability (Dactolisib + Vorinostat; first compound 0.06325 µM): 0.154
- relative viability (Dactolisib + Vorinostat; first compound 0.2 µM): 0.165
- relative viability (AZ505 + Palbociclib; first compound 0.08 µM): 0.122
- relative viability (AZ505 + Palbociclib; first compound 0.253 µM): 0.156
- relative viability (AZ505 + Palbociclib; first compound 0.8 µM): 0.153
- relative viability (AZ505 + Palbociclib; first compound 2.53 µM): 0.139
- relative viability (AZ505 + Palbociclib; first compound 8 µM): 0.151

Cell Line: NCI-H522
- relative viability (Dactolisib + Vorinostat; first compound 0.002 µM): 0.861
- relative viability (Dactolisib + Vorinostat; first compound 0.006325 µM): 0.833
- relative viability (Dactolisib + Vorinostat; first compound 0.02 µM): 0.79
- relative viability (Dactolisib + Vorinostat; first compound 0.06325 µM): 0.822
- relative viability (Dactolisib + Vorinostat; first compound 0.2 µM): 0.657
- relative viability (AZ505 + Palbociclib; first compound 0.08 µM): 0.91
- relative viability (AZ505 + Palbociclib; first compound 0.253 µM): 0.946
- relative viability (AZ505 + Palbociclib; first compound 0.8 µM): 0.891
- relative viability (AZ505 + Palbociclib; first compound 2.53 µM): 1.04
- relative viability (AZ505 + Palbociclib; first compound 8 µM): 1.16
